Data from patent publication US20240336625A1, “SULFONIMIDAMDE COMPOUNDS AND USES THEREOF” (Genentech, Inc., priority 2021, published 2024).
pIC50: −log10 of the molar value. Read-outs that look alike come from different tables or passages of the source.

Legend:
[1] = system: NLRP3 dependent inflammasome pathway; experiment: THP-1 ASC-GFP Speck Assay; assay type: cell-based; settings: THP1-ASC-GFP; THP-1 ASC-GFP cells, LPS primed, 10 μM nigericin
Description: Cell Culture: THP-1 ASC-GFP cell line is purchased from Invivogen, San Diego, for inflammasome activation assay. THP-1 ASC-GFP cells stably express a 37.6 kDa ASC::GFP fusion protein that enables monitoring of spec formation by microscopy after activation of NLRP3 dependent inflammasome pathway. Cells are maintained at a density of 600,000 cells/mL in growth media consisting of RPMI 1640, 2 mM L-glutamine, 25 mM HEPES and 10% heat inactivated fetal bovine serum at 37° C. and 5% CO2. Cells are passaged every 3-4 days and used for assays for up to 20 passages.
NLRP3 inflammasome activation assay: THP-1 ASC-GFP cells are collected by centrifuging cells at 800 RPM for 5 minutes. Cell culture supernatant is removed and cells are resuspended in fresh media at density of 1×10^6 cells/mL in assay media consisting of RPMI 1640, 2 mM L-glutamine, 25 mM HEPES and 10% heat inactivated fetal bovine serum.
Phorbol 12-myristate 13-acetate (PMA) (Invivogen, tlrl-pma) is added to the cell suspension at a final concentration of 500 ng/ml and mixed thoroughly. 40,000 cells are added per well of a 384 well plate and differentiated into macrophages overnight at 37° C. and 5% CO2. […]
Imaging ASC-GFP specks: THP-1 ASC-GFP cells are imaged in 488 and Hoechst channels. […] Percentage of cells with a spec is calculated by dividing the number of GFP positive spots by total number of cells.

[2] = system: NLRP3 inflammasome pathway; experiment: Human Whole Blood Assay (IL-1β release, LPS + ATP); assay type: cell-based; settings: read-out: HWB IC90
Description: The ability of selected compounds to inhibit IL-1beta production in human blood was assessed in a human whole blood assay with lipopolysaccharide.
Fresh human whole blood (HWB) was obtained from healthy donors. […] At the end of stimulation, the plates were centrifuged 2 min×3000 rpm, and supernatant transferred into fresh plates and stored at −80° C. until IL-1β analysis. IL-1b levels were measured using electrochemiluminescence immunoassay with an anti-IL-1b antibody as a primary detection agent.

hPXR nuclear receptor = biological target: T1, hPXR nuclear receptor (Homo sapiens, UniProt O75469); experiment: PXR Activation Assay; assay type: cell-based; settings: relative to positive control (rifampicin)
T1 construct: expressed in transfected cells
T1 sequence (O75469 1-434): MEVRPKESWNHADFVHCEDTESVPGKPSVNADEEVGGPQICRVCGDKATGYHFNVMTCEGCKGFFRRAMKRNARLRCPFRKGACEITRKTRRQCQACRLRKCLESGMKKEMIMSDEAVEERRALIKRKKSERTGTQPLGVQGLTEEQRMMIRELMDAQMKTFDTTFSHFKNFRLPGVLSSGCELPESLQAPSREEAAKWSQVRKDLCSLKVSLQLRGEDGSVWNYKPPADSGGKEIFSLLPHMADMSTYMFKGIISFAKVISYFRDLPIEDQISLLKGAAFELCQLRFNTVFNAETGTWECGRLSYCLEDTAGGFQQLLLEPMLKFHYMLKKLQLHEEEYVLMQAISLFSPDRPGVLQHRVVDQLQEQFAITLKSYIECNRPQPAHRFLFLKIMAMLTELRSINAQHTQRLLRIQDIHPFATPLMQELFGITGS
Description: Hepatoma cells either expressing an endogenous human […] or transfected with the hPXR nuclear receptor and the corresponding response elements were seeded in a 96-well plate. Twenty-four hours after seeding, the cells were treated with six distinct concentrations of test compounds in duplicate wells, and cells then returned to the incubator for an additional 24 h. At the end of this incubation period, the number of viable cells/well was determined using Promega's Cell Titer Fluor cytotoxicity assay. Following this assay, Promega's ONE-Glo was added to the same wells and reporter gene activity assessed.
Data processed using MS-Excel was provided as the mean (n=2) of the fold receptor activation relative to vehicle-treated cells at each of the six different doses. All activation data was normalized to the number of viable cells/well. Results were also expressed as a percentage of the response given by the appropriate positive control (rifampicin) at a 10 μM dose. EC50 and Emax values were derived for positive controls using nonlinear regression of log dose-response curves.

[3] = Rat Pharmacokinetic (PK) Studies; assay type: in vivo, Sprague-Dawley rats; settings: male, Sprague-Dawley, plasma; for bioavailability: 1 mg/kg PO vs 0.5 mg/kg IV cassette dose
Description: Studies were performed at WuXi AppTech Co., Ltd (Shanghai, P.R. China). Food and water were available ad libitum except for animals that were dosed oral doses in pharmacokinetic (PK) studies, which were fasted overnight before dosing of test compounds. Six male Sprague-Dawley rats, aged 6-9 weeks with body weight of 200-300 g were obtained from Vital River Laboratory Animal Technology Co., Ltd., Beijing, P.R. China and were randomly allocated to two dose groups (3 rats were used for the IV group and 3 rats for the PO group). Animals in Group 1 were given a single IV bolus cassette dose of 0.5 mg/kg of test compounds at a dose volume of 1 mL/kg, formulated in DMSO/PEG400/Water (10/60/30). Animals in Group 2 were given a 1 mg/kg PO cassette dose of test compounds at a dose volume of 1 mL/kg, formulated in 0.5% Methyl cellulose/0.2% Tween 80 (MCT) as a suspension. Blood samples were collected via catheter at the femoral artery into tubes containing K2EDTA as an anticoagulant. Both groups were sampled at 0.033, 0.083, 0.25, 0.5, 1, 2, 4, 8 and 24 hours post-dose for blood. All samples were stored at −80° C. until analysis. The concentration of test compounds in each blood or plasma sample was determined by LC-MS/MS analysis.
PK parameters were calculated by noncompartmental methods as described in Gibaldi and Perrier (1982) using Phoenix™ WinNonlin (Certara, Princeton, NJ) version 8.3.4.295. Parameters are presented as mean±SD. Bioavailability (F) was determined by dividing the dose-normalized area under the plasma concentration-time curve from time 0 extrapolated to infinity (AUCinf) for each animals dosed orally by the dose-normalized mean AUCinf determined from the animals dosed intravenously.

[4] = Homo sapiens, LPS 200 ng/mL, ATP 1.75 mM, IL-1β
[5] = read-out: Rat Half Life (converted)

SMILES	pIC50 [1]	IC90 [2, 4]	% PXR activation @ 10 μM (hPXR nuclear receptor)	bioavailability [3]	IC90 ([2]; LPS 200 ng/mL, ATP 1.75 mM, IL-1β)	IC90 ([2]; Homo sapiens)	half-life [3, 5]	half-life ([3]; read-out: half life)
C[C@]1(CO)Cn2ncc([S@](N)(=O)=NC(=O)Nc3c4c(c(F)c5c3CC5)CC4)c2O1 (single isomer, unassigned) [Compound G]	8.96							
CC1(CO)COc2c(S(N)(=O)=NC(=O)Nc3c4c(cc5c3CCC5)CCC4)cnn2C1 (single isomer, unassigned) [XJ]		700 nM	2.4%					
CC1(CO)COc2c(S(N)(=O)=NC(=O)Nc3c4c(cc5c3CCC5)CCC4)cnn2C1 (single isomer, unassigned) [XK]			4%		560 nM			
C[C@]1(CO)Cn2ncc([S@](N)(=O)=NC(=O)Nc3c4c(cc5c3CC5)CC4)c2O1 [Compound 2, (R,2R)-2-(hydroxymethyl)-2-methyl-N′-(tricyclo[6.2.0.0^3,6]deca-1,3(6), 7-trien-2-ylcarbamoyl)-2,3-dihydropyrazolo[5,1-b]oxazole-7-sulfonimidamide]		43 nM		53%		< 100 nM	> 2 h	
C[C@]1(CO)Cn2ncc([S@](N)(=O)=NC(=O)Nc3c4c(c(F)c5c3CC5)CC4)c2O1 [Compound 6, (R,2R)-N′-((7-fluorotricyclo[6.2.0.0^3,6]deca-1,3(6),7-trien-2-yl)carbamoyl)-2-(hydroxymethyl)-2-methyl-2,3-dihydropyrazolo[5,1-b]oxazole-7-sulfonimidamide]		55 nM		48%		< 100 nM	1.8 h	> 1.5 h
C[C@]1(CO)Cn2ncc([S@](N)(=O)=NC(=O)Nc3c4c(cc5c3CC5)CC4)c2O1 [Compound A, (R,2R)-2-(hydroxymethyl)-2-methyl-N-(tricyclo[6.2.0.0^3,6]deca-1,3(6),7-trien-2-ylcarbamoyl)-2,3-dihydropyrazolo[5,1-b]oxazole-7-sulfonimidamide]	9.01							
CC1(C)COc2c(S(N)(=O)=NC(=O)Nc3c4c(cc5c3CCC5)CCC4)cnn2C1 (stereo not shown) [XA]		480 nM	61%	45%			2 h	
CC1(C)Cn2ncc(S(N)(=O)=NC(=O)Nc3c4c(cc5c3CCC5)CCC4)c2O1 (stereo not shown) [XB]		290 nM	74%	91%			0.87 h	
CC1(CO)Cn2ncc(S(N)(=O)=NC(=O)Nc3c4c(cc5c3CCC5)CCC4)c2O1 (stereo not shown) [XN]			6.2%	36%			1.2 h	
CNC1COc2c(S(N)(=O)=NC(=O)Nc3c4c(c(F)c5c3CC5)CC4)cnn2C1 (stereo not shown) [XO]		110 nM	3.3%	32%			1.3 h	< 1 h

Continued, values first:

pIC50 [1]	IC90 [2, 4]	% PXR activation @ 10 μM (hPXR nuclear receptor)	bioavailability [3]	IC90 ([2]; LPS 200 ng/mL, ATP 1.75 mM, IL-1β)	IC90 ([2]; Homo sapiens)	half-life [3, 5]	half-life ([3]; read-out: half life)	SMILES
	770 nM	25%	28%					C[C@@H]1COc2c(S(N)(=O)=NC(=O)Nc3c4c(cc5c3CCC5)CCC4)cnn2C1 (single isomer, unassigned) [XG]
	3400 nM	26%						NS(=O)(=NC(=O)Nc1c2c(cc3c1CC3)CCC2)c1cnn2c1OCCC2 (stereo not shown) [XC]
	1700 nM	22%						NS(=O)(=NC(=O)Nc1c2c(cc3c1CCC3)CCC2)c1cnn2c1OCCC2 (stereo not shown) [XD]
	520 nM	63%	126%					CC1(C)COc2c(S(N)(=O)=NC(=O)Nc3c4c(cc5c3CC5)CC4)cnn2C1 (stereo not shown) [XE]
	3300 nM	15%	54%					NS(=O)(=NC(=O)Nc1c2c(cc3c1CC3)CC2)c1cnn2c1OCC2 (stereo not shown) [XF]
	130 nM	81%	85%			1.9 h		CC1(C)Cn2ncc(S(N)(=O)=NC(=O)Nc3c4c(cc5c3CC5)CC4)c2O1 (stereo not shown) [XH]
	240 nM	90%	39%					CC1(C)Cn2ncc(S(N)(=O)=NC(=O)Nc3c4c(cc5c3CC5)CCC4)c2O1 (stereo not shown) [XI]
	390 nM	3.7%						NS(=O)(=NC(=O)Nc1c2c(cc3c1CCC3)CCC2)c1cnn2c1OC(CO)C2 (stereo not shown) [XL]
	2400 nM	2.4%						NS(=O)(=NC(=O)Nc1c2c(cc3c1CCC3)CCC2)c1cnn2c1OCC(O)C2 (stereo not shown) [XM]
	130 nM		33%			1.9 h		COC1CN(C2COc3c(S(N)(=O)=NC(=O)Nc4c5c(cc6c4CC6)CC5)cnn3C2)C1 (stereo not shown) [XP]
